Reference: patent US9834514B2, “Antibiotic sensitivity-restoring and photosensitive agents” (New Mexico Tech Research Foundation, priority 2015, dated 2017)
≈ marks a conversion by molar mass, not a printed value.

Key:
S. aureus (ATCC 29213) = test: MIC against drug sensitive S. aureus; assay type: cell-based; details: Staphylococcus aureus, ATCC29213; ATCC 29213; read-out: S. aureus MIC
P. aeruginosa [1] = test: Cell killing with compounds and PME at fixed concentrations, with and without white light; assay type: cell-based; details: 20 μM compound and 0.1 μg/mL PME
Experimental: FIG. 26 is an example of the treatment of P. aeruginosa with compound 1 and PME at fixed concentrations.
P. aeruginosa cells were also treated with white light upon being incubated with compound 1 for different durations of time. In a 12×75 mm borosilicate glass culture tube, 1 mL of cell suspension was added. PME was added to the cells, and the samples were mixed using a vortex mixer. The resulting samples were incubated for 1.5 hours at 37° C. on a rotary shaking incubator at 100 rpm. Compound 1 was then added, and the samples were incubated for 30 minutes at 37° C. on a rotary shaking incubator at 100 rpm. The samples were then irradiated with white light using a Lumacare™ LC-122 for 2 minutes (irradiation λ1) and incubated overnight at 37° C. The samples were irradiated again with white light using a Lumacare™ LC-122 for 2 minutes (irradiation λ2). Ten-fold dilutions were made of each sample, and 10 μL of each dilution was drip-streaked onto an agar plate. The samples were incubated overnight at 37° C., and colony counts were performed to calculate CFU/mL.
FIG. 55 is an illustrative example of the treatment of P. aeruginosa with compound 1, PME, co-treatment with compound 1 and PME, and co-treatment with compound 1, PME, and light (λ1 and λ2) at fixed concentrations.

P. aeruginosa [2] = test: Resensitization to antibiotics (log reduction, TABLE 29); assay type: cell-based; details: compound 20 μM; PME (0.1 μg/mL)
MRSA (ATCC BAA-44) = test: Synergy with oxacillin and norfloxacin and other antibiotics (colony counts); assay type: cell-based, S. aureus
Experimental: The synergy of compounds 1 and 7-11 with oxacillin and norfloxacin was tested against MRSA (ATCC BAA-44). An overnight culture of MRSA was first diluted to about 5×10^5 CFU/mL in TSB. Then, 1 mL of the diluted broth suspension was added to a borosilicate glass culture tube. An appropriate volume of a compound or an antibiotic drug stock was added to the broth suspension and mixed using a vortex mixer. Then an appropriate volume of an antibiotic was added to test synergy with compounds 7-11. The samples were subsequently mixed using a vortex mixer, and the samples were incubated for 18 hours at 37° C. on a rotary shaking incubator. After 18 hours, the test cultures were diluted ten-fold, 10 μL of each dilution was drip-streaked onto a TSA plate, and the samples were incubated for 18 hours at 37° C. Colony counts were then performed and the CFU/mL values were calculated.
TABLE 21 details the MIC values identified in the MRSA assay of compounds 1, 7, 8, 9, 10, 11, various antibiotics, and light.

CRE = test: Resensitization to antibiotics (log reduction, TABLE 29); assay type: cell-based; details: compound 20 μM
Experimental: (§1) In a 96-well microtiter plate, two-fold dilutions were made of each drug (starting with 100 μM) in 100 μL of a cell suspension in TSB. The resulting samples were incubated overnight at 37° C. on a rotary shaking incubator at 100 rpm. The samples were then visually inspected for turbidity. A 20% well volume of MTT reagent (5 mg/mL) was subsequently added, and the samples were incubated for about 20 minutes.

[3] = test system: Klebsiella pneumoniae (CRE, ATCC BAA-1705); test: Cell killing of CRE with compounds in presence or absence of PMB (CFU/mL); assay type: cell-based
Experimental: Klebsiella pneumoniae (CRE, ATCC BAA-1705) was grown in TSB overnight at 37° C. and diluted to about 5×10^5 CFU/mL using a McFarland Latex Turbidity standard (0.5). One mL of the cell suspension was transferred to a glass culture test tube. PMB was added to the cell suspension resulting in a final concentration of 200 μg/mL of PMB. The cell suspension was incubated at 37° C. on a rotary shaking incubator at 150 rpm for 4 hours. Compounds 1, 7, 8, 9, 10, and 11 were added to the cell suspension, resulting in a concentration of 20 μM for each of the compounds. The cell suspensions containing the compounds were incubated at 37° C. on a rotary shaking incubator at 150 rpm for 4 hours. Each sample was diluted tenfold to a 10^−5 dilution. Ten 10 microliters of each dilution from each sample was dripped onto a TSA plate and allowed to streak down the plate. The agar plates were incubated at 37° C. for 18-24 hours. Colony counts were performed and CFU/mL values were calculated.
The MICs of PMB and compounds 7-11 were determined against Klebsiella pneumoniae (CRE, ATCC BAA-1705). […] After the incubation with PMB, each of the compounds was added at a concentration of 20 μM, and the samples were incubated for an additional 18 hours. A sample was taken and diluted ten-fold in media. Ten microliters of each dilution was then drip-streaked onto an agar plate and incubated overnight at 37° C. Colony counts were then performed and the concentrations of cells (CFU/mL) were calculated.

VRE = test: Resensitization to antibiotics (log reduction, TABLE 29); assay type: cell-based, Enterococcus faecalis; details: compound 7.5 μM; Norfloxacin ([…])
Experimental: as §1

[4] = test system: A. baumannii (ATCC 15151); test: MIC against A. baumannii; assay type: cell-based; details: Acinetobacter baumannii, ATCC15151
Experimental: TABLE 28 details the individual MIC values of compounds 1, 7, 8, 9, 10, 11, PMB, PME, and light against A. baumannii.
The MICs of PME and compounds 8-11 were determined against A. baumannii (ATCC 15151). […] After incubating the cells with PME, a compound (5 μM) was added, and the samples were further incubated at 37° C. At specific time points, samples were taken and diluted ten-fold in media. Ten microliters of each dilution was then drip-streaked onto an agar plate and incubated overnight at 37° C. Colony counts were then performed, and the CFU/mL were calculated.

[5] = (⅓) MIC compound + (¼) MIC Norfloxacin
[6] = (⅓) MIC compound + (½) MIC Oxacillin
[7] = increase in ability to kill MRSA versus drug or compound alone

`Brc1ccc(/N=N/c2c[nH]c3ccccc23)cc1` [Compound 8] was tested, and the MIC (S. aureus (ATCC 29213)) was 8 µM (≈ 2.4 µg/mL), the “Co-treatment with PME: log reduction in the CFU/mL compared to PME alone” value (P. aeruginosa [1]) was 4-log reduction and the “Co-treatment with PME: log reduction in the CFU/mL compared to PME alone” value (P. aeruginosa [1]; listed as compound 8) was roughly 4 log reduction. The “Log Reduction” value (P. aeruginosa [2]) was 4, the “% Kill” value (MRSA (ATCC BAA-44); [5]) was 99% and the “Surviving MRSA” value (MRSA (ATCC BAA-44); [5]) was 1.00 × 10^−2. The “% Kill” value (MRSA (ATCC BAA-44); [6]) was 99.9%, the “Surviving MRSA” value (MRSA (ATCC BAA-44); [6]) was 1.00 × 10^−3 and the “MICs greater than cells treated with compound alone, with norfloxacin” value (MRSA (ATCC BAA-44); FIGS. 35-38) was “two-fold”. The “MICs greater than cells treated with compound alone, with oxacillin” value (MRSA (ATCC BAA-44); FIGS. 35-38) was “three-fold”, the “Orders of Magnitude with Norfloxacin” value (MRSA (ATCC BAA-44); [7]) was greater than 2 and the “Orders of Magnitude with Oxacillin” value (MRSA (ATCC BAA-44); [7]) was greater than 3. The “Log Reduction” value (CRE; PMB (0.2 μg/mL)) was 6, the “Log Reduction” value (CRE; PME (0.2 μg/mL)) was 6 and the “PMB + Comp” value ([3]; PMB @ 0.2 μg/mL + Comp @ 20 µM) was “None Detected”. The “Comp @ 20 µM” value ([3]; compound alone) was 6.6 × 10^8 CFU/mL, the “Log Reduction” value (VRE) was 4-5 and the MIC [4] was greater than 100 µM.
